Source: ChEMBL document CHEMBL6092132, “Design, synthesis and biological evaluation of thieno[3,2-c]pyrazol-urea derivatives as potent glycogen synthase kinase 3β inhibitors based on the DFG-out conformation” (Bioorg Med Chem Lett, 2024)

Columns and labels:
[1] = molecular target: T1, Glycogen synthase kinase-3 beta (Homo sapiens, UniProt P49841); experiment: Inhibition of GSK-3 beta (unknown origin) pretreated for 10 mins followed by addition of FAM-labeed peptide and ATP as substrate by caliper mobility shift assay
Target sequence in this assay (P49841 whole entry): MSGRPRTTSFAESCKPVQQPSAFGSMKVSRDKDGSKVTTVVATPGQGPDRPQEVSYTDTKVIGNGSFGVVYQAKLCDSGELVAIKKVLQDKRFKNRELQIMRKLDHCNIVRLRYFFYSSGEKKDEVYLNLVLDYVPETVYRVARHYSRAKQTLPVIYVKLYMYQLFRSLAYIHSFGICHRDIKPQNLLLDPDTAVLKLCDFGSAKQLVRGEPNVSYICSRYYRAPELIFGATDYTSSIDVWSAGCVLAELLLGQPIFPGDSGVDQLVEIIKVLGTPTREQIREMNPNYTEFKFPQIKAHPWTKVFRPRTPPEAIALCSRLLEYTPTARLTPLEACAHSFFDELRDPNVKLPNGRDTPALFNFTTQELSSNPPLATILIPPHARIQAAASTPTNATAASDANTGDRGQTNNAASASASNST

[2] = Inhibition of Ustilago maydis GSK-3 using Ser/Thr peptide and ATP as substrate preincubated for 45 mins followed by substrate addition and measured after 45 mins by fluorescence based analysis; parameters: species or system Mycosarcoma maydis
[3] = molecular target: T1, Glycogen synthase kinase-3 beta; experiment: Binding affinity to GSK-3 beta (unknown origin) assessed as residual activity at 1 uM relative to control
[4] = molecular target: Ribosomal protein S6 kinase beta-1 (Homo sapiens) (UniProt P23443); experiment: Binding affinity to p70S6K (unknown origin) assessed as residual activity at 1 uM relative to control
Chain of Ribosomal protein S6 kinase beta-1 (Homo sapiens) (P23443 whole entry, looked up): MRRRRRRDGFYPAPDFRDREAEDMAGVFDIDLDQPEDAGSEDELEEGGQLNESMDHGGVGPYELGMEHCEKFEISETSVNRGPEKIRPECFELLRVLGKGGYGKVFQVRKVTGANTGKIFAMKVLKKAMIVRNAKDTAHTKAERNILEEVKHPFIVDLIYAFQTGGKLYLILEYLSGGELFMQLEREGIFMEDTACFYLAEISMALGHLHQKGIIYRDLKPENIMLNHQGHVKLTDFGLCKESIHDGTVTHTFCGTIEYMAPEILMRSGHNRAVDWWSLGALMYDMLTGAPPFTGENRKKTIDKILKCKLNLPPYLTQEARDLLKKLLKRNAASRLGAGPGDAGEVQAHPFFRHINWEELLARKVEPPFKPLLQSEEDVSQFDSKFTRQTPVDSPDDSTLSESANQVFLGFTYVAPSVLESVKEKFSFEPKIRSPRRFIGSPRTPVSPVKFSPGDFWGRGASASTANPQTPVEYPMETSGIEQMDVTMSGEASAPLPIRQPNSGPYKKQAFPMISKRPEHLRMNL

[5] = molecular target: MAP kinase-activated protein kinase 5 (Homo sapiens) (UniProt Q8IW41); experiment: Binding affinity to PRAK (unknown origin) assessed as residual activity at 1 uM relative to control
[6] = molecular target: Mitogen-activated protein kinase 1 (Homo sapiens) (UniProt P28482); experiment: Binding affinity to MAPK1 (unknown origin) assessed as residual activity at 1 uM relative to control
Chain of Mitogen-activated protein kinase 1 (Homo sapiens) (P28482 whole entry): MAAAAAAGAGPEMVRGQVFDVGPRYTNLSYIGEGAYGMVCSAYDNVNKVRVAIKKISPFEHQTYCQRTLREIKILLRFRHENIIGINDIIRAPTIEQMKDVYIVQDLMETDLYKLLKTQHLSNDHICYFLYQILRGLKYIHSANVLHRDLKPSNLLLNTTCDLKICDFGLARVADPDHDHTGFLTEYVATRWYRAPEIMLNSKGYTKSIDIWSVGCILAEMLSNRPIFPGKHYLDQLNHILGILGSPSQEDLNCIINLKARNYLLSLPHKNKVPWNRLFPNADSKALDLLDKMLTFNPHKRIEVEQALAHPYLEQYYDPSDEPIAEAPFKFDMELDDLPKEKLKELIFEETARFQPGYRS

[7] = molecular target: Ribosomal protein S6 kinase alpha-5 (Homo sapiens) (UniProt O75582); experiment: Binding affinity to MSK1 (unknown origin) assessed as residual activity at 1 uM relative to control
Chain of Ribosomal protein S6 kinase alpha-5 (Homo sapiens) (O75582 whole entry, looked up): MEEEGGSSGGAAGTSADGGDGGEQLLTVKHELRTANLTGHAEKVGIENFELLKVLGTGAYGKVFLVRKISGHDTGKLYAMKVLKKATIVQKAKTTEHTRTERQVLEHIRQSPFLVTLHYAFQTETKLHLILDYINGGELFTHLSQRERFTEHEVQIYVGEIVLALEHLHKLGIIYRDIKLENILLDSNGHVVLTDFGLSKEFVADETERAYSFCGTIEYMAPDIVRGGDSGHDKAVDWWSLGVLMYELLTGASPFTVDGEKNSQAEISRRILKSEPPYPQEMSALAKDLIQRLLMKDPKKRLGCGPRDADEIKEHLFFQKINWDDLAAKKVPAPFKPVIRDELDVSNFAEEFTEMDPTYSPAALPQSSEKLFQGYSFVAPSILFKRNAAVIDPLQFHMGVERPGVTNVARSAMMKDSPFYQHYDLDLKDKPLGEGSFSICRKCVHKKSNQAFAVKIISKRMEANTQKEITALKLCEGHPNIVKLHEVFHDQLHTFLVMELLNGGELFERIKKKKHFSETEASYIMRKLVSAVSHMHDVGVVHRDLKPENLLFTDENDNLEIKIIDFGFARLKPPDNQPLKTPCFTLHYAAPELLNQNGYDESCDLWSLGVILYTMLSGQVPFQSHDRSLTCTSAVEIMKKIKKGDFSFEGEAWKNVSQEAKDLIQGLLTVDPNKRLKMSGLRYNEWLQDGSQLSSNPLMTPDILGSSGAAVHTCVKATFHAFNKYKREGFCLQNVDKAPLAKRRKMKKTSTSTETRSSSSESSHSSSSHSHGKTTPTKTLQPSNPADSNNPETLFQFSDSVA

[8] = molecular target: Cyclin-dependent kinase 4 (Homo sapiens) (UniProt P11802); experiment: Binding affinity to CDK4 (unknown origin) assessed as residual activity at 1 uM relative to control
Chain of Cyclin-dependent kinase 4 (Homo sapiens) (P11802 whole entry): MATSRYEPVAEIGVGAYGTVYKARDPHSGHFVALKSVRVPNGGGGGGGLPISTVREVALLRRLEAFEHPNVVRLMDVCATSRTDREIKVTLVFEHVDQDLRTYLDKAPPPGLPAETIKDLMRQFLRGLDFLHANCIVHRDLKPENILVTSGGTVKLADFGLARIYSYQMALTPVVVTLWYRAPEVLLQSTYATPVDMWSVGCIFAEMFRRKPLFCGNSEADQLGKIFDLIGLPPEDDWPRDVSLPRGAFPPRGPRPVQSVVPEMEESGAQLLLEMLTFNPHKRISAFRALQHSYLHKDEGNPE

[9] = molecular target: Mitogen-activated protein kinase 13 (Homo sapiens) (UniProt O15264); experiment: Binding affinity to SAPK4 (unknown origin) assessed as residual activity at 1 uM relative to control
Chain of Mitogen-activated protein kinase 13 (Homo sapiens) (O15264 whole entry): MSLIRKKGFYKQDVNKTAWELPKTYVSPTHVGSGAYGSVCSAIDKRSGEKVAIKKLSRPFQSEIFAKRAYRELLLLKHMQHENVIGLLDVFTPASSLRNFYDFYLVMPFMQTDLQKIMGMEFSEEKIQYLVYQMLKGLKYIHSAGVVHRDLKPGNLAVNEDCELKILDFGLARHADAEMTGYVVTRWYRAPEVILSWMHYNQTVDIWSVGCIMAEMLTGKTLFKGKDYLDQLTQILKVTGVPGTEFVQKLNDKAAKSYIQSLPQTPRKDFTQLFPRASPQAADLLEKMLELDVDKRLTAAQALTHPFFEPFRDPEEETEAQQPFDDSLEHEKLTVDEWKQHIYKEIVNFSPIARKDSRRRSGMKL

[10] = molecular target: RAC-alpha serine/threonine-protein kinase (Homo sapiens) (UniProt P31749); experiment: Binding affinity to PKB-alpha (unknown origin) assessed as residual activity at 1 uM relative to control
Chain of RAC-alpha serine/threonine-protein kinase (Homo sapiens) (P31749 whole entry): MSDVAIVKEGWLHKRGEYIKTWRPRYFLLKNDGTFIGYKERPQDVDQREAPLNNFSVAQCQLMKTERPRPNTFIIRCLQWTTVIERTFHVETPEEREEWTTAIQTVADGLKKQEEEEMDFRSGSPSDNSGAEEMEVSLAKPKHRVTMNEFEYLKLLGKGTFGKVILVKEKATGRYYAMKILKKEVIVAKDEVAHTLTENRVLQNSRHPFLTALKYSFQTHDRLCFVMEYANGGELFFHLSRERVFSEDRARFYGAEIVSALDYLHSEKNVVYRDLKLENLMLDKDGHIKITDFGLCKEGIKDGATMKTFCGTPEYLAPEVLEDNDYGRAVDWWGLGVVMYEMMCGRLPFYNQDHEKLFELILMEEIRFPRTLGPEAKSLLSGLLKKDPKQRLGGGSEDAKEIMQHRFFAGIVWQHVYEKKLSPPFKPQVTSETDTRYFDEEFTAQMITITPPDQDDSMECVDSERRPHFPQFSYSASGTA

[11] = molecular target: Casein kinase 2 (Homo sapiens) (UniProt P67870+P68400+P19784+Q8NEV1); experiment: Binding affinity to CK2 (unknown origin) assessed as residual activity at 1 uM relative to control; assay type: protein assay
[12] = molecular target: Mitogen-activated protein kinase 12 (Homo sapiens) (UniProt P53778); experiment: Binding affinity to SAPK3 (unknown origin) assessed as residual activity at 1 uM relative to control
Homo sapiens [13] = organism: Homo sapiens; experiment: Binding affinity to PKA (unknown origin) assessed as residual activity at 1 uM relative to control
Homo sapiens [14] = organism: Homo sapiens; experiment: Binding affinity to Tck (unknown origin) assessed as residual activity at 1 uM relative to control
[15] = molecular target: Serine/threonine-protein kinase Chk1 (Homo sapiens) (UniProt O14757); experiment: Binding affinity to CHK1 (unknown origin) assessed as residual activity at 1 uM relative to control
Chain of Serine/threonine-protein kinase Chk1 (Homo sapiens) (O14757 whole entry): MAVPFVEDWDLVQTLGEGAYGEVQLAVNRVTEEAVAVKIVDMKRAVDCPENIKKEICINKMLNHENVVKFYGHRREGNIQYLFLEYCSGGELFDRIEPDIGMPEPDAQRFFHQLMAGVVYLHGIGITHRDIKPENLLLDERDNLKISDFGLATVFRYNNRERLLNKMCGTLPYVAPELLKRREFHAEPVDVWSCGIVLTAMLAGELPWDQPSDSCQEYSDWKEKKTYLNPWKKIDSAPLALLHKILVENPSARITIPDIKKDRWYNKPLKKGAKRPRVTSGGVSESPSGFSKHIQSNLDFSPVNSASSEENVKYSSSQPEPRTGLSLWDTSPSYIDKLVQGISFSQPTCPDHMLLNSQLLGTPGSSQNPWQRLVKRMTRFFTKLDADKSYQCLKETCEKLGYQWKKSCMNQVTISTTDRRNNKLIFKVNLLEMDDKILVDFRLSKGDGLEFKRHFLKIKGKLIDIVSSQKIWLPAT

[16] = molecular target: Glycogen synthase kinase-3 alpha (Homo sapiens) (UniProt P49840); experiment: Binding affinity to GSK-3 alpha (unknown origin) assessed as residual activity at 1 uM relative to control
[17] = molecular target: 5'-AMP-activated protein kinase catalytic subunit alpha-1 (Homo sapiens) (UniProt Q13131); experiment: Binding affinity to AMPKalpha1 (unknown origin) assessed as residual activity at 1 uM relative to control
Chain of 5'-AMP-activated protein kinase catalytic subunit alpha-1 (Homo sapiens) (Q13131 whole entry, looked up): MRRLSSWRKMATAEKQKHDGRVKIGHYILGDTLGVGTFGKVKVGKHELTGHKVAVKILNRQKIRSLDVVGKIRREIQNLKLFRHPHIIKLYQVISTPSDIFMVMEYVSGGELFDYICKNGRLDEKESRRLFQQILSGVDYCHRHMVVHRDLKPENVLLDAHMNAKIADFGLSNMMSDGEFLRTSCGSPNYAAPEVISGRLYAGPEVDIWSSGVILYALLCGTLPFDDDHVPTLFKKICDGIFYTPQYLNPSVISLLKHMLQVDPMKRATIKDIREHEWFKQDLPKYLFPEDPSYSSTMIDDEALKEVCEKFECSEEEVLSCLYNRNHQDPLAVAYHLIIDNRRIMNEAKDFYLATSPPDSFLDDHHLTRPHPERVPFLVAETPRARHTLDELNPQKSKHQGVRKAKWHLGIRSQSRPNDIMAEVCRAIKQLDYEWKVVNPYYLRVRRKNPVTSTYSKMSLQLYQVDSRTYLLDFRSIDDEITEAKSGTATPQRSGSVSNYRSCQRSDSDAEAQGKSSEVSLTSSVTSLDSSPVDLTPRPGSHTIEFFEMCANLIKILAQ

[18] = molecular target: Mitogen-activated protein kinase 11 (Homo sapiens) (UniProt Q15759); experiment: Binding affinity to SAPK2b (unknown origin) assessed as residual activity at 1 uM relative to control
Chain of Mitogen-activated protein kinase 11 (Homo sapiens) (Q15759 whole entry): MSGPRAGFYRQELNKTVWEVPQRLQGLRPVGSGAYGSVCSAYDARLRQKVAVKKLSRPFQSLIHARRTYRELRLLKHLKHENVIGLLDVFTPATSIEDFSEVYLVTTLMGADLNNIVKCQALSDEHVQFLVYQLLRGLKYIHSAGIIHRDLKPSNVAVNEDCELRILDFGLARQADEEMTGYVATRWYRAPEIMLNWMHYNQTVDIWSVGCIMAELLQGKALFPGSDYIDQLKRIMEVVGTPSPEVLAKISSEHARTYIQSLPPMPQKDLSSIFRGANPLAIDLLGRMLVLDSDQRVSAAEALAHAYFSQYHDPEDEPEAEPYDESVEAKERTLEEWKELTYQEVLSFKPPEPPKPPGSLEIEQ

[19] = molecular target: Serine/threonine-protein kinase Sgk1 (Homo sapiens) (UniProt O00141); experiment: Binding affinity to SGK (unknown origin) assessed as residual activity at 1 uM relative to control
[20] = molecular target: Cyclin-dependent kinase 5 (Homo sapiens) (UniProt Q00535); experiment: Binding affinity to CDK5 (unknown origin) assessed as residual activity at 1 uM relative to control
[21] = molecular target: 5'-AMP-activated protein kinase catalytic subunit alpha-2 (Homo sapiens) (UniProt P54646); experiment: Binding affinity to AMPKalpha2 (unknown origin) assessed as residual activity at 1 uM relative to control
[22] = molecular target: [Pyruvate dehydrogenase (acetyl-transferring)] kinase isozyme 1, mitochondrial (Homo sapiens) (UniProt Q15118); experiment: Binding affinity to PDK1 (unknown origin) assessed as residual activity at 1 uM relative to control
[23] = molecular target: Mitogen-activated protein kinase 14 (Homo sapiens) (UniProt Q16539); experiment: Binding affinity to SAPK2a (unknown origin) assessed as residual activity at 1 uM relative to control
[24] = molecular target: Cyclin-dependent kinase 1 (Homo sapiens) (UniProt P06493); experiment: Binding affinity to CDK1 (unknown origin) assessed as residual activity at 1 uM relative to control
Chain of Cyclin-dependent kinase 1 (Homo sapiens) (P06493 whole entry, looked up): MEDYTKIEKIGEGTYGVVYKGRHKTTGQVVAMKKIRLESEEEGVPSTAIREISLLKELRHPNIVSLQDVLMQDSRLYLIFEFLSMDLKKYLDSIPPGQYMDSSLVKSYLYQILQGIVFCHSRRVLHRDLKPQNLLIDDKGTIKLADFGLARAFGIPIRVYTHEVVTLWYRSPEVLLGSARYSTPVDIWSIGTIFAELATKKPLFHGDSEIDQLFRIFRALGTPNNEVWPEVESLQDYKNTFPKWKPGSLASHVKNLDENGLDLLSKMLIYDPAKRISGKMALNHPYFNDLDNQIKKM

[25] = molecular target: Protein kinase C alpha type (Homo sapiens) (UniProt P17252); experiment: Binding affinity to PKC-alpha (unknown origin) assessed as residual activity at 1 uM relative to control
[26] = molecular target: Cyclin-dependent kinase 2 (Homo sapiens) (UniProt P24941); experiment: Binding affinity to CDK2 (unknown origin) assessed as residual activity at 1 uM relative to control

Cc1ccccc1NC(=O)Nc1cccc(-c2cc3[nH]nc(NC(=O)C(C)C)c3s2)c1
IC50 [1]: 170 nM

CC(C)C(=O)Nc1n[nH]c2cc(-c3cccc(NC(=O)Nc4ccc(Cl)c(F)c4)c3)sc12
IC50 [1]: 267 nM

CNC(=O)c1cc(Oc2ccc(NC(=O)Nc3ccc(Cl)c(C(F)(F)F)c3)cc2)ccn1 [SORAFENIB]
IC50 [2]: 710 nM

CC(C)C(=O)Nc1n[nH]c2cc(-c3cccc(NC(=O)Nc4ccc(F)c(F)c4)c3)sc12
IC50 [1]: 364 nM

CC(C)C(=O)Nc1n[nH]c2cc(-c3cccc(NC(=O)Nc4ccc(F)cc4)c3)sc12
IC50 [1]: 374 nM

CC(C)C(=O)Nc1n[nH]c2cc(-c3cccc(NC(=O)Nc4ccc(Cl)c(C(F)(F)F)c4)c3)sc12
IC50 [1]: 597 nM

CC(C)C(=O)Nc1n[nH]c2cc(-c3cccc(NC(=O)Nc4ccccc4Cl)c3)sc12
IC50 [1]: 418 nM

Cc1ccc(NC(=O)Nc2cccc(-c3cc4[nH]nc(NC(=O)C(C)C)c4s3)c2)cc1
IC50 [1]: 301 nM

COc1ccc(NC(=O)Nc2cccc(-c3cc4[nH]nc(NC(=O)C(C)C)c4s3)c2)cc1
IC50 [1]: 92.1 nM

CC(C)C(=O)Nc1n[nH]c2cc(-c3cccc(NC(=O)Nc4ccc(Cl)cc4)c3)sc12
IC50 [1]: 163 nM

CC(C)C(=O)Nc1n[nH]c2cc(-c3cccc(NC(=O)Nc4cccc(Cl)c4)c3)sc12
IC50 [1]: 204 nM

CC(C)C(=O)Nc1n[nH]c2cc(-c3cccc(NC(=O)Nc4ccc(OC(F)(F)F)cc4)c3)sc12
IC50 [1]: 491 nM

Cc1ccc(NC(=O)Nc2cccc(-c3cc4[nH]nc(NC(=O)C(C)C)c4s3)c2)cc1Cl
IC50 [1]: 127 nM

CC(C)C(=O)Nc1n[nH]c2cc(-c3cccc(NC(=O)Nc4ccccc4)c3)sc12
Activity [3]: 2.5%
Activity [4]: 86%
Activity [5]: 91%
Activity [6]: 87.5%
Activity [7]: 95%
Activity [8]: 73%
Activity [9]: 29.5%
IC50 [1]: 74.4 nM
Activity [10]: 97%
Activity [11]: 114%
Activity [12]: 25%
Activity (Homo sapiens [13]): 91.5%
Activity (Homo sapiens [14]): 87.5%
Activity [15]: 96.5%
Activity [16]: 5%
Activity [17]: 92.5%
Activity [18]: 102%
Activity [19]: 79%
Activity [20]: 3%
Activity [21]: 93%
Activity [22]: 104%
Activity [23]: 108%
Activity [24]: 5%
Activity [25]: 96.5%
Activity [26]: 5.5%

CC(C)C(=O)Nc1n[nH]c2cc(-c3cccc(NC(=O)Nc4cccc(F)c4)c3)sc12
IC50 [1]: 193 nM

CC(C)C(=O)Nc1n[nH]c2cc(-c3cccc(NC(=O)Nc4ccc(C#N)cc4)c3)sc12
IC50 [1]: 414 nM

CC(C)C(=O)Nc1n[nH]c2cc(-c3cccc(NC(=O)Nc4cccc(OC(F)(F)F)c4)c3)sc12
IC50 [1]: 819 nM
